Test results as given in US9408389B2 (Rohm and Haas Company, priority 2013, dated 2016).

What was measured:
[1] = system: Stichococcus bacillaris SAG 379-1a / CCAP 379/1a; assay: Algal efficacy testing of dry paint films (modified ASTM D5589-09), Stichococcus; type: cell-based; settings: 672 h
Protocol: (§1) Slurries containing 33% flurochloridone were post added to a white, acrylic/silicone based outdoor paint free of biocides to give a total active ingredient concentration of 10000 and 1000 ppm respectively. These paints were then diluted with an antimicrobial free acrylic/silicone based paint and mixed to prepare targeted concentrations of antimicrobial compounds for the testing. The total biocides concentrations tested were 125, 250, 500, 1000, 2000 and 5000 ppm. After biocides addition or dilution, the paints were mixed 90 seconds with the horse power shaker (AXEL 75M3372/Agitateur SO-10MI) until uniformity was achieved. Paints containing different antimicrobial compounds at the same levels were mixed together in order to obtain the desired ratio of antimicrobial compounds. After one day, the paints were applied to Schleicher & Schuell filter paper at 280 μm wet film thickness and dried for 3 days at room temperature avoiding direct exposure to sunlight. Square discs (1.6 cm×1.6 cm) were cut out from each panel and were used as the substrate for algal efficacy tests. This sample size allowed for an agar border when the sample disc was placed into the well of the test plate. […]
(§2) At the end of the four week incubation period, the samples were scored for percent inhibition regarding visible algal growth compared to the blank sample (0% inhibition).
(§3) The SI is calculated based on F. C. […]

Chlorella sp. ATCC 7516 = assay: Algal efficacy testing of dry paint films (modified ASTM D5589-09), Chlorella; type: cell-based; settings: 672 h
Protocol: as §1, §2, §3

| SMILES | inhibition at 2000 ppm ([1]; Stichococcus, total conc 2000 ppm in paint, 4 weeks, visible algal growth vs blank) [%] | inhibition at 2000 ppm (Chlorella sp. ATCC 7516; total conc 2000 ppm in paint, 4 weeks, visible algal growth vs blank) [%] | inhibition at 5000 ppm [1] [%] | inhibition at 5000 ppm (Chlorella sp. ATCC 7516) [%] |
| --- | --- | --- | --- | --- |
| O=C1C(Cl)C(CCl)CN1c1cccc(C(F)(F)F)c1 (stereo not shown) [Flurochloridone, 3-chloro-4-(chloromethyl)-1-[3-(trifluoromethyl)phenyl]-2-pyrrolidinone] | 50 | 60 |  |  |
| O=c1[nH]c2c(c(=O)n1C1CCCCC1)CCC2 [Lenacil, 3-cyclohexyl-1,5,6,7-tetrahydrocyclopentapyrimidine-2,4(3H)-dione] |  |  | 65 | 45 |
